Broadly, the IC50 is the point on the concentration scale where inhibition reaches its midpoint. The term MIC denotes the lowest concentration that inhibits growth of the organism.

Converted amounts (≈) assume the structure as drawn. Bounds are passed on as bounds.

From article PMC8333053, “Synthesis and biological screening of new thiadiazolopyrimidine-based polycyclic compounds” (Scientific Reports, 2021) come the findings set out here.

One data set relates to Hep-2. Briefly: MTT cytotoxicity assay. In kind it is cell-based. Conditions: Homo sapiens, HEp-2, 72 h, 3 days. The protocol:
(§1) The cytotoxicity of the prepared tri-and tetra-cyclic thiadiazolopyrimidine compounds were examined toward various cancer cell lines, such as liver and breast cancer (MCF-7), prostate cancer (PC3), laryngeal carcinoma (Hep-2), carcinoma (HepG2), and standard normal fibroblast cells (WI38) using the MTT assay[33] at the National Research Centre (Egypt). The cytotoxicity (Table 3) toward 50% inhibition of the cell viability (IC50 values) was assessed using 5-fluorouracil (5-Fu) as the standard anticancer drug.
(§2) The synthesized compounds were subjected to the MTT cytotoxicity assay on the basis of the cited literature.
(§3) MTT cytotoxicity assay: The technical method of MTT assay depends on the reduction of yellow 3-(4,5-methyl-2-thiazolyl)-2,5-diphenyl-2H-tetrazolium bromide (MTT) into purple formazan product, mainly by mitochondrial reductase activity inside the living cells. The cells used in cytotoxicity assay were cultured in RPMI 1640 medium supplemented with 10% fetal calf serum. Cells suspended in the medium (2×10^4 cells/mL) were plated in 96-well culture plates and incubated at 37 °C in a 5% CO2 incubator for 12 hours. The tested sample (2 μL) was added to the cells (2×10^4) in 96-well plates and cultured at 37 °C for 3 days. The cultured cells were mixed with 20 μL of MTT solution and incubated for 4 hours at 37 °C. The supernatant was carefully removed from each well, the formazan crystals were dissolved after addition of DMSO (100 μL) for each well to form the cellular reduction of MTT. After mixing with a mechanical plate mixer, the absorbance of each well was measured by a microplate reader using a test wavelength of 570 nm. The results were expressed as the IC50 values, which inducing 50% inhibition of cell growth of the treated cells when compared to the growth of control cells.

Another data set deals with MCF-7. In words: MTT cytotoxicity assay. In kind it is cell-based. Particulars: Homo sapiens, MCF7, 72 h, 3 days. The protocol:
as §1, §2, §3
On the technique in general: Formazan colour is commonly taken as a measure of viable cells.

Another data set concerns HepG2. Briefly: MTT cytotoxicity assay. In kind it is cell-based. Conditions: Homo sapiens, HepG2, 72 h, 3 days. As to the method:
as §1, §2, §3

The test system of a further data set is PC3. In words: MTT cytotoxicity assay. Conditions: Homo sapiens, PC-3, 72 h, 3 days. In kind it is cell-based. As to the method: as §1, §2, §3
Data set [1] is described as follows: MTT cytotoxicity assay on normal cells. In kind it is cell-based. Conditions: human, WI38 normal fibroblast cells. The protocol:
as §1, §2, §3

Data set [2] has as its system Chromobacterium violaceum (ATCC 12472). Briefly: Antiquorum-sensing assay (violacein pigment inhibition). In kind it is cell-based. Conditions: 5 mg/mL, 50 µL per well, 30°C, 48 h; QS inhibition = r2 − r1. From the text:
The synthesized thiadiazolopyrimidine-based compounds were screened for their antiquorum-sensing (anti-QS) inhibition activity by the Chromobacterium violaceum (ATCC 12472) technique using catechin as the standard compound[28]–[30]. The QS technique of C. violaceum was remarked by the detection of violacein (violet pigment)[31],[32]. Meanwhile, the reactivity of the synthesized thiadiazolopyrimidine-containing derivatives as drugs depends on their efficiency to inhibit the liberation of violacein during the QS technique. The QS inhibition was determined by the following equation: QS inhibition (mm) = (r2 − r1), where r1 is the inhibition radius of the bacterial growth and r2 is the inhibition radius for growth as well as the release of the pigment.
The anti-QS inefficiency was evaluated using the previous technique mentioned in the literature.
The culture was prepared by growing Ch. violaceum ATCC 12472 in LB broth and incubated for 16–18 h in an orbital incubator running at 28°C and 150 rpm. The culture was then adjusted to 0.5 McFarland standard (ca. 1 × 10^6 CFU/mL). Ch. violaceum (50 µL) was inoculated into LB agar (50 mL), poured into plates, and solidified. Wells were made in LB agar medium using cork borer. The tested compounds were dissolved in DMSO 100% in Eppendorf tubes for final concentration of 5 mg/mL, and 50 µL of the test solution was applied into the wells. The positive control (catechin) was also added at the same concentration and volume to each plate. In addition, DMSO (control solvent) was added to each plate. […] Bacterial growth inhibition by the tested compounds was measured as radius (r1) in mm, while both growth and pigment inhibition was measured as radius (r2) in mm. The pigment inhibition (QS inhibition) was determined by subtracting bacterial growth inhibition (r1) from the total radius (r2); thus, QS inhibition = (r2 - r1) in mm.

The subject of data set [3] is Pseudomonas aeruginosa ATCC 29260. Briefly: Antibacterial MIC, two-fold serial dilution. In kind it is cell-based. Particulars: ATCC29260, Gram −ve bacteria, LB broth, 37°C, 24 h, visual (no turbidity), read-out: MIC P. aeruginosa. The protocol: (§4) The antimicrobial activity of the synthesized thiadiazolopyrimidine compounds was studied toward diverse pathogenic strains, such as gram-positive bacteria (Staphylococcus aureus ATCC 29213 and Bacillus cereus UW85), gram-negative bacteria (Escherichia coli ATCC 12435 and Pseudomonas aeruginosa ATCC 29260), and fungi (Candida albicans and Aspergillus fumigatus 293). The assessment was performed through the two-fold dilution technique using Ampicillin (antibacterial) and Fluconazole (antifungal) as the reference drugs[28],[29]. The minimal inhibitory concentration (MICs, µg/mL) of the synthesized derivatives for prohibiting microbial growth was determined through the visual detection (no turbidity) technique.
(§5) The synthesized thiadiazolopyrimidine-based compounds were evaluated and adopted for antibacterial and antifungal effectiveness using the approved procedure[38],[39].
(§6) Minimal inhibitory concentrations (MICs) were determined by serial dilution technique using 96-multiwell microtiter plates. The investigated compounds were dissolved in DMSO 100% to prepare stock solutions of 5000 µg/mL. Two-fold serial dilutions of the dissolved compounds were performed in LB broth providing eight different concentrations (1250, 625, 312.5, 156, 78, 39, 19.5 µg/mL). Overnight cultures of microorganisms were diluted to 1 ×10^6 CFU/mL in LB broth, and 20 mL of the diluted cultures were added to the test solutions (50 mL) in the wells (one well per concentration per bacterial strain). The plates were incubated at 37°C for 24 h. MIC was detected visually as the least concentration inhibiting bacterial growth (no turbidity) and the activity of the tested compounds was estimated in comparison to ampicillin.

Data set [4] has as its system Escherichia coli ATCC 12435. Briefly: Antibacterial MIC, two-fold serial dilution. In kind it is cell-based. Particulars: ATCC12435, Gram −ve bacteria, LB broth, 37°C, 24 h, visual (no turbidity). The protocol:
as §4, §5, §6

For a further data set, the system named is Bacillus cereus UW85. In words: Antibacterial MIC, two-fold serial dilution. In kind it is cell-based. Particulars: Gram +ve bacteria, LB broth, 37°C, 24 h, visual (no turbidity), read-out: MIC B. cereus. The protocol:
as §4, §5, §6

The subject of data set [5] is Staphylococcus aureus ATCC 29213. Briefly: Antibacterial MIC, two-fold serial dilution. In kind it is cell-based. Conditions: ATCC29213, Gram +ve bacteria, LB broth, 37°C, 24 h, visual (no turbidity), read-out: MIC S. aureus. As to the method: as §4, §5, §6
For a further data set, the system named is Candida albicans. Briefly: Antifungal MIC, two-fold serial dilution. In kind it is cell-based. Particulars: Fungi, glucose minimal medium, 30°C, 48 h, visual (no turbidity). The protocol: as §4, §5
(§7) Minimal inhibitory concentrations (MICs) were determined by serial dilution technique using 96-multiwell microtiter plates. The investigated compounds were dissolved in DMSO 100% to prepare stock solutions of 5000 µg/mL. Two-fold serial dilutions of the dissolved compounds were performed in glucose minimal medium providing eight different concentrations (1250, 625, 312.5, 156, 78, 39, 19.5 µg/mL). The microorganisms were diluted to 1 ×10^3 SFU/mL in glucose minimal medium, and 20 µL of the diluted culture was added to the test solutions (50 µL) in the wells (one well per concentration). The plates were incubated at 30°C for 48 h. MIC was detected visually as the least concentration inhibiting fungal growth (no turbidity) and the activity of the tested compounds was estimated in comparison to fluconazole.

In data set [6] the test system is Aspergillus fumigatus 293. In words: Antifungal MIC, two-fold serial dilution. In kind it is cell-based. Conditions: Fungi, glucose minimal medium, 30°C, 48 h, visual (no turbidity). As to the method: as §4, §5, §7
A further data set deals with DNA. In words: Bleomycin-dependent DNA damage. Conditions: test sample 0.1 mg/mL, λ = 532 nm; mean of three replicates ± SD; ascorbic acid 0.24 mM. In kind it is biochemical. From the text:
Bleomycin-dependent DNA damage. The prepared polycyclic thiadiazolopyrimidine-based compounds were examined through the bleomycin-dependant DNA damage, and the results were compared to that of ascorbic acid as a positive control. The obtained data reflected the ability of these derivatives to protect the DNA from damage. The capability of compounds 16a–b and 17a–b to manifest the best protective effect against DNA damage was indicated by the corresponding absorbance values ranging from 0.031 to 0.053 (Table 4)[35],[36].
Bleomycin-dependent DNA damage experiment: To a mixture of 0.5 mg / mL of DNA, 5 mM magnesium chloride, 50 mM ferric chloride and 0.05 mg / mL bleomycin sulfate was prepared. The test sample was prepared at a concentration of 0.1 mg / mL and added to the mixture. After incubation of the mixture for one hour at 37 °C, 0.05 mL of EDTA (0.1 M) was added to terminate the reaction. In the next step, 0.5 mL of TBA (1% w / v) and 0.5 mL of HCl (25% v / v) were added for colour development and the mixture was heated for 10 minutes at 80 °C. The mixture was centrifuged and the absorbance expressed, the amount of damage to the DNA was measured at λ = 532 nm. L-Ascorbic acid (0.24 mM) was used as a positive control.

For `O=c1[nH]cc(F)c(=O)[nH]1` [Compound 5-Fu, 5-Fluorouracil, reference compound], the IC50 with Hep-2 came out at 5.35 ± 0.23 µM; in the data set on MCF-7, 5.58 ± 0.31 µM; with HepG2, 7.2 ± 0.45 µM; with PC3, 8.78 ± 0.6 µM. Also, in [1], the IC50 at 3 days is 10.3 ± 0.62 µM.

Take `O.Oc1cc(O)c2c(c1)O[C@H](c1ccc(O)c(O)c1)[C@@H](O)C2` [Catechin, catechin, reference compound]: the “Diameter of quorum-sensing inhibition C. violaceum” value in [2] is listed as 2 mm.

As for `CC1(C)S[C@@H]2[C@H](NC(=O)[C@H](N)c3ccccc3)C(=O)N2[C@H]1C(=O)O` [Ampicillin, reference compound], the MIC in [3] is 78 mg/L (≈ 0.223 mM); in data set [4], 19.5 mg/L (≈ 0.0558 mM); in the data set with Bacillus cereus UW85, 1250 mg/L (≈ 3.58 mM); in [5], above 1250 mg/L.

For the compound `OC(Cn1cncn1)(Cn1cncn1)c1ccc(F)cc1F` [Fluconazole, reference compound], the MIC (in the data set on Candida albicans; in [6]) was above 1250 mg/L each time.

With `O=C1O[C@H]([C@@H](O)CO)C(O)=C1O` [Ascorbic acid, L-Ascorbic acid, reference compound], in the data set with DNA, the “Absorbance (bleomycin-dependent DNA damage)” value amounted to 0.060 ± 0.02.
